These results are taken from ChEMBL document CHEMBL1136213, “2,6-disubstituted pyran-4-one and thiopyran-4-one inhibitors of DNA-Dependent protein kinase (DNA-PK)” (Bioorg Med Chem Lett, 2003).

By Ki is commonly meant a measure of affinity in units of concentration, obtained from inhibition or displacement. Read a high Ki as weaker binding. The term IC50 denotes the concentration that inhibits the measured activity by half. Low values mean greater potency, high ones weaker potency.

The target in test [1] is T1, DNA-dependent protein kinase catalytic subunit (Homo sapiens, UniProt P78527). Put plainly: Affinity for DNA-dependent protein kinase(DNA-PK) from HeLa cell extract.
The target of test [2] is T1, DNA-dependent protein kinase catalytic subunit. Briefly: In vitro inhibition of DNA-dependent protein kinase(DNA-PK) from HeLa (human carcinoma) cells. Type of test: cell-based.

T1 sequence (P78527 whole entry): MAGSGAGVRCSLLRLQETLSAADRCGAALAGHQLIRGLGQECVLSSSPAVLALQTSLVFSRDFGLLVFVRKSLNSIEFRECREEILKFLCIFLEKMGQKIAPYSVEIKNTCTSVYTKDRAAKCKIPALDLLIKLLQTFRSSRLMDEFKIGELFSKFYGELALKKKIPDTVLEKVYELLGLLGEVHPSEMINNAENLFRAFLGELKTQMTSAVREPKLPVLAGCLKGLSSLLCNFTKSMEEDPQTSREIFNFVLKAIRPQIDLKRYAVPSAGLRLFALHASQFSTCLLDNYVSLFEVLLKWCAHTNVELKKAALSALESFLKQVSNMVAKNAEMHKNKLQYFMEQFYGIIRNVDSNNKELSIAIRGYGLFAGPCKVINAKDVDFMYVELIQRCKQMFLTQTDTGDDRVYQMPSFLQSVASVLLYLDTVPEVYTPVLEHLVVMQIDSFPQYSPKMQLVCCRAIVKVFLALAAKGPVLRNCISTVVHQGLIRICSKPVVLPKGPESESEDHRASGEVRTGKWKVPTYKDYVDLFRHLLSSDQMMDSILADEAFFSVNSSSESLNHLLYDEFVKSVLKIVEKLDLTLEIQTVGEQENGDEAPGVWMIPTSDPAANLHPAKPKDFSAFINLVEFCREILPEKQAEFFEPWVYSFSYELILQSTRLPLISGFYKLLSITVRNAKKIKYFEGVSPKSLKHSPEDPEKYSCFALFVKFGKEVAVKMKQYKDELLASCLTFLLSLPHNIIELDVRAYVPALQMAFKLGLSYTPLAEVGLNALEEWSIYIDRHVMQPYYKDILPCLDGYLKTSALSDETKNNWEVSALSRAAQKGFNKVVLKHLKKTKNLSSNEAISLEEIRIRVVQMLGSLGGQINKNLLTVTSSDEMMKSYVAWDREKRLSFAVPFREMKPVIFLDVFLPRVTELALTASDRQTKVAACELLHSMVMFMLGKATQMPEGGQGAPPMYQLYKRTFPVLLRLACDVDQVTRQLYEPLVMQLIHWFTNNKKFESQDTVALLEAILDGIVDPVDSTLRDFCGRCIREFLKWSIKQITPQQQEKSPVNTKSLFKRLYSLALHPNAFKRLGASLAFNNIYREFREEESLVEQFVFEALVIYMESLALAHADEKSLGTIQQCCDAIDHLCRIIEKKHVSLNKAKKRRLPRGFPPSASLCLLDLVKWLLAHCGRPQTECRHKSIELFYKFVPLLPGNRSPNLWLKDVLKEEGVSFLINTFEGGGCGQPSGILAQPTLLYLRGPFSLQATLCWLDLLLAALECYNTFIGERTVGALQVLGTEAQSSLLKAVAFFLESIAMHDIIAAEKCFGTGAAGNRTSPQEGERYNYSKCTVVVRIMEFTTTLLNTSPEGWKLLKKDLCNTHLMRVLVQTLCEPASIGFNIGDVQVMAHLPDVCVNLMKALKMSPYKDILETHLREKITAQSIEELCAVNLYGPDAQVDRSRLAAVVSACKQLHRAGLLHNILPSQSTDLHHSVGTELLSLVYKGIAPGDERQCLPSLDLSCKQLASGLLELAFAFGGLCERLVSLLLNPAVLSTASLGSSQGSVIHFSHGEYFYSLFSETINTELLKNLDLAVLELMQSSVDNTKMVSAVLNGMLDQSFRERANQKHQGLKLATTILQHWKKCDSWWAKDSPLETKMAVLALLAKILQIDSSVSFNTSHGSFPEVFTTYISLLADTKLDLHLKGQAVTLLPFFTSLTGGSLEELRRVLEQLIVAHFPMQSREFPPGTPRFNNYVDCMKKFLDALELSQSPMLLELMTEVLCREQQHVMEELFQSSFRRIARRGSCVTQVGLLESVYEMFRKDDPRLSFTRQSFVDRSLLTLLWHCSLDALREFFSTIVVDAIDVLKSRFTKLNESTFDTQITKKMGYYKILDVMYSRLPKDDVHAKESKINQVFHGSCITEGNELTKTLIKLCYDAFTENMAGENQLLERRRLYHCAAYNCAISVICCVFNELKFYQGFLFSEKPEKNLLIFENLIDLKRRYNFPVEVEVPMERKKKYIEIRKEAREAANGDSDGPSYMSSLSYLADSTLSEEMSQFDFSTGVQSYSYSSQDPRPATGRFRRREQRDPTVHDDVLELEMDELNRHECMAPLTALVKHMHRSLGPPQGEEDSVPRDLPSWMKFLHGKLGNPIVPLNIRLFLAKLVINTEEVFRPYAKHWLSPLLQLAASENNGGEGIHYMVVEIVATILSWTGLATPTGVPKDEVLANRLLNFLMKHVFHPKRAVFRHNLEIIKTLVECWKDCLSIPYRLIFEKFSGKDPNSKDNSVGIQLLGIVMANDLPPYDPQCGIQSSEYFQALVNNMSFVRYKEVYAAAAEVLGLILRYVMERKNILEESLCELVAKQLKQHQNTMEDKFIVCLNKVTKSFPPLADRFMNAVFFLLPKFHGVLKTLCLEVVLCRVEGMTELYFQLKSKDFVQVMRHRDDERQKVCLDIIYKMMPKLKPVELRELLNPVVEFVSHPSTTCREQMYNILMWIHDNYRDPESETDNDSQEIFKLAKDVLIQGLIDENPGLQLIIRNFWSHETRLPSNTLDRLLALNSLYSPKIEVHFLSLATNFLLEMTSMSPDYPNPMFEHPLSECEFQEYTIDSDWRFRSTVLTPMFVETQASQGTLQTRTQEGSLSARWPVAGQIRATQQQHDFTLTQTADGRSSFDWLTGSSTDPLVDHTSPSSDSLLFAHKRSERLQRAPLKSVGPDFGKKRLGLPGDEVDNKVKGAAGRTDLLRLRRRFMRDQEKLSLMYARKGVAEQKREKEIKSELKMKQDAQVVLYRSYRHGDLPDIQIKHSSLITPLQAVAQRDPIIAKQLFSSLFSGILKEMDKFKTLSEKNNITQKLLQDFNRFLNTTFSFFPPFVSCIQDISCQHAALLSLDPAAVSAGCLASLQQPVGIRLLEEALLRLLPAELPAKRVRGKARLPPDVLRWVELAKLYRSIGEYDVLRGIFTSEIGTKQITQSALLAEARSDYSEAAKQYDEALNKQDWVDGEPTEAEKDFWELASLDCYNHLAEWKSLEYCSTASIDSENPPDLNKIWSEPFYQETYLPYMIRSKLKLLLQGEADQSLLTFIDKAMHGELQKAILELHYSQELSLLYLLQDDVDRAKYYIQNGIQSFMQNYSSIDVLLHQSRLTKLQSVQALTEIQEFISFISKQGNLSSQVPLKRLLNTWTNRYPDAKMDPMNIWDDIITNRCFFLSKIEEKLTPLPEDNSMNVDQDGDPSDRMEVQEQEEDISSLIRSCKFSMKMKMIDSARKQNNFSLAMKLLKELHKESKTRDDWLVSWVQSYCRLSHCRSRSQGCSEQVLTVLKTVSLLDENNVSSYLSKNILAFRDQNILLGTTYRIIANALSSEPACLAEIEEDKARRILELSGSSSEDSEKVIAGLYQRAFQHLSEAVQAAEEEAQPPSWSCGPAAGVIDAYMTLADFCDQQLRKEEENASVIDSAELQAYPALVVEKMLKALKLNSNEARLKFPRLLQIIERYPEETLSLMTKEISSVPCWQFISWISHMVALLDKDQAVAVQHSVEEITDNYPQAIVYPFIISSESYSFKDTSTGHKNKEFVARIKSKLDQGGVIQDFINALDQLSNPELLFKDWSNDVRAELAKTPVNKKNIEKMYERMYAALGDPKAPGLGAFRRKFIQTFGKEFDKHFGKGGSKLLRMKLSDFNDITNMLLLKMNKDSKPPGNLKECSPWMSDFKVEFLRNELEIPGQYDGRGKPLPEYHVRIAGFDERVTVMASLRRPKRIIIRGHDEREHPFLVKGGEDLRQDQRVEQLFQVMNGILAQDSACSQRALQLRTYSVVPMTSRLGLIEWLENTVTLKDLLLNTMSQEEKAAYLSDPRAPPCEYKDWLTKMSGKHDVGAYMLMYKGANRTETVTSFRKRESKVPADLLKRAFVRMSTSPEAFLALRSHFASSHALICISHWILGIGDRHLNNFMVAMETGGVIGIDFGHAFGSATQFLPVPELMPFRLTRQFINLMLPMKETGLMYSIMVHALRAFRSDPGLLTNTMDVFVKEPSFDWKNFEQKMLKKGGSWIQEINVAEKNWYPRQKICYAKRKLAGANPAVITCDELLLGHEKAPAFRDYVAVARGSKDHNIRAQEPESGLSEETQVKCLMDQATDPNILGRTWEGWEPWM

For `O=c1cc(N2CCOCC2)oc2c(-c3ccccc3)cccc12` [LY-294002], in test [1], the Ki amounted to 6000 nM.
Regarding `O=c1cc(-c2cccc(-c3ccc(O)cc3)c2)sc(N2CCOCC2)c1`, in test [2], the IC50 is 350 nM.
With `O=c1cc(N2CCOCC2)oc2c1ccc1ccccc12`, in test [2], the IC50 stood at 230 nM.
